# According to patent US20250295648A1 (priority 2024, published 2025):
# Assays:
# [1] = both, human, in vivo
# Description: Based on the befiradol Cmax values observed in healthy male volunteers reported in WO 2016/005527, the sustained release compositions disclosed above in Tables 26-28 would be expected to provide Cmax values not less than those shown in Table 29 after a single oral administration to patients with Parkinson's disease. […] Therefore, the Cmax values in Table 29 for SR1-SR9 may be higher (e.g., by 10% or 20%) when administered to patients with Parkinson's disease since young adults rarely experience Parkinson's disease, which usually develops around age 60 or older.
# 6-OH-DA lesioned rats = details: rat, in vivo; cited from earlier work
# PD patients with LID [2] = test: PD Home Dyskinesia eDiary (good ON time); format: in vivo, human
# Description: A PD Home Dyskinesia Diary (electronic) would be completed by the patients and/or caregiver with concordance in ON time with dyskinesia between study staff and patient. The diary is integrated in the Kinesia 360 wearable dyskinesia assessment system and is based on the PD Home Diary developed by Hauser (Hauser […]. Parkinson's Disease Home Diary: Further Validation and Implications for Clinical Trials. Mov. Discord. 19 (12), 2004). The diary would be used to score 5 different conditions in 30-minute time intervals during 2×24 hours prior to Visit 2, Visit 6 and Visit 7: • ASLEEP; • OFF; • ON (i.e., adequate control of PD symptoms) without dyskinesia; • ON with non-troublesome dyskinesia; • ON with troublesome dyskinesia.
# striatal 5-HT release = details: rat, in vivo; cited from earlier work
# [3] = system: overall PD symptoms in PD patients with LID; test: Clinical Global Impression of Change (CGI-C); format: in vivo, human
# Description: The CGI-C is a clinician-oriented scale that assesses the total improvement in the patient's condition relative to the clinical global impression of severity (CGI-S) scale conducted at baseline. The CGI-C rates the patient's condition from 0 to 7, with a rating of 0 indicating “no assessment”, a rating of 1 indicating “very much better”, and a rating of 7 indicating “very much worse”.
# PD patients with LID [4] = test: Hospital Anxiety Depression Scale (HADS); format: in vivo, human
# Description: The HADS is used to determine the levels of anxiety and depression that a person is experiencing. The questionnaire consists of 7 items related to anxiety and 7 related to depression. Each item on the questionnaires is scored from 0-3, which means that a person can score between 0 and 21 for either anxiety or depression.
# [5] = per-protocol set (n = 15), Baseline
# [6] = per-protocol set, Δ D 28 (end of up-titration)
smiles,measurement,setting,value
"Cc1ccc(CNCC2(F)CCN(C(=O)c3ccc(F)c(Cl)c3)CC2)nc1 [NLX-112, (3-chloro-4-fluoro-phenyl)-[4-fluoro-4-{[(5-methyl-pyridin-2-ylmethyl)-amino]-methyl}piperidin-1-yl]methanone]","Cmax in female subjects, higher than males",[1],20%-40
same,rotation behavior,6-OH-DA lesioned rats,increases rotation behavior
same,"good ON time, mean absolute change from baseline","PD patients with LID [2]; Day 28, n=13, eDiary",+5.7%
same,"good ON time, significance of change from baseline within or between groups",PD patients with LID [2]; Day 28 or Day 42,no statistically significant changes
same,"good ON time, mean absolute change from baseline","PD patients with LID [2]; Day 42, n=12, eDiary",+5.2%
same,striatal 5-HT release and dopamine surge following L-DOPA,striatal 5-HT release,inhibited striatal 5-HT release and blunted the ‘dopamine surge’
same,"CGI-C: proportion of patients minimally, much or very much improved",[3]; Day 28,33%
same,"CGI-C: proportion of patients minimally, much or very much improved",[3]; Day 42,53%
same,"CGI-C Minimally improved, number of patients","[3]; Stable Dosing (d 42), n = 15",3
same,"CGI-C Minimally improved, proportion of patients","[3]; Stable Dosing (d 42), n = 15",(20%)
same,"CGI-C Minimally worse, number of patients","[3]; Stable Dosing (d 42), n = 15",1
same,"CGI-C Minimally worse, proportion of patients","[3]; Stable Dosing (d 42), n = 15",(6.7%)
same,"CGI-C Much improved, number of patients","[3]; Stable Dosing (d 42), n = 15",4
same,"CGI-C Much improved, proportion of patients","[3]; Stable Dosing (d 42), n = 15",(27%)
same,"CGI-C No change, number of patients","[3]; Stable Dosing (d 42), n = 15",6
same,"CGI-C No change, proportion of patients","[3]; Stable Dosing (d 42), n = 15",(40%)
same,"CGI-C Total Improved, number of patients","[3]; Stable Dosing (d 42), n = 15",8
same,"CGI-C Total Improved, proportion of patients","[3]; Stable Dosing (d 42), n = 15",(53%)
same,"CGI-C Very much improved, number of patients","[3]; Stable Dosing (d 42), n = 15",1
same,"CGI-C Very much improved, proportion of patients","[3]; Stable Dosing (d 42), n = 15",(6.7%)
same,"CGI-C Minimally improved, number of patients","[3]; Up-Titration (d 28), n = 15",3
same,"CGI-C Minimally improved, proportion of patients","[3]; Up-Titration (d 28), n = 15",20%
same,"CGI-C Minimally worse, number of patients","[3]; Up-Titration (d 28), n = 15",1
same,"CGI-C Minimally worse, proportion of patients","[3]; Up-Titration (d 28), n = 15",6.7%
same,"CGI-C Much improved, number of patients","[3]; Up-Titration (d 28), n = 15",2
same,"CGI-C Much improved, proportion of patients","[3]; Up-Titration (d 28), n = 15",13%
same,"CGI-C No change, number of patients","[3]; Up-Titration (d 28), n = 15",9
same,"CGI-C No change, proportion of patients","[3]; Up-Titration (d 28), n = 15",60%
same,"CGI-C Total Improved, number of patients","[3]; Up-Titration (d 28), n = 15",5
same,"CGI-C Total Improved, proportion of patients","[3]; Up-Titration (d 28), n = 15",33%
same,"CGI-C Very much improved, number of patients","[3]; Up-Titration (d 28), n = 15",0
same,"CGI-C overall PD symptoms, NLX-112 vs placebo",[3]; days 28 and 42,no statistically significant differences
same,anxiety and depression (HADS),PD patients with LID [4]; Days 28 or 42,no consistent statistically significant effect
same,"HADS (Anxiety), mean",PD patients with LID [4]; [5],4.5
same,"HADS (Depression), mean",PD patients with LID [4]; [5],3.7
same,"HADS (Anxiety), mean change from baseline",PD patients with LID [4]; [6],−0.5
same,"HADS (Depression), mean change from baseline",PD patients with LID [4]; [6],−0.4
same,"HADS (Depression), mean change from baseline","PD patients with LID [4]; per-protocol set, Δ D 42 (end of stable dosing)",−0.6
